Measurements reported in patent publication US11130769B2 (Prelude Therapeutics Incorporated, priority 2018, dated 2021).

Key:
MCL-1 = MCL-1 (Homo sapiens (Human), UniProt Q07820); assay: Cell free Mcl-1:Bim affinity assay (fluorescence polarization competition); type: binding; conditions: 15 nM MCL-1, 5 nM FITC-Bim, 1 hour at room temperature; class symbols; read-out: BIM_Ki
Procedure, shortened: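 Compounds competed with FITC-labelled Bim peptide (5 nM) for MCL-1 (15 nM) in HEPES/NaCl buffer with 1% DMSO, 1 h at room temperature. Fluorescence polarization (535 nm emission) gave % inhibition versus DMSO and positive controls; IC50 from 10-point curves, converted to Ki by the Nikolovska-Coleska equation.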

H929 cells = assay: Cell viability assay (H929 10 FBS); type: cell-based; conditions: Homo sapiens, NCI-H929, 24 hours, read-out: H929_10FBS IC50
Procedure, shortened: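 H929 cells, 4000/well, in RPMI 1640 with 10% FBS, sodium pyruvate, HEPES and glucose were exposed to compound 24 h at 37 °C. Viability read as luminescence after 30-60 min at RT with CellTiter-Glo or ATPlite 1 Step.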

Chain of MCL-1 (Q07820 whole entry): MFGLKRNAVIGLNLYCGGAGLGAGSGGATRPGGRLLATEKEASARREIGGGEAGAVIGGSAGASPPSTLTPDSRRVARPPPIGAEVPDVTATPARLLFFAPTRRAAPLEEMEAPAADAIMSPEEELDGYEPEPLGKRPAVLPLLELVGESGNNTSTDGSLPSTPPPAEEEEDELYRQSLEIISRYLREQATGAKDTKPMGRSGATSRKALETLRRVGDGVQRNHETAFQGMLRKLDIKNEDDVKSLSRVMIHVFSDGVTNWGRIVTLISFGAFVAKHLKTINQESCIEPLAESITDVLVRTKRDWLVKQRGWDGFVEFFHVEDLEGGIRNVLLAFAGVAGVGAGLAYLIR

Row | SMILES | Ki (MCL-1) [nM] | IC50 (H929 cells) [nM]
1 | CO[C@@H]1/C=C/CN[C@@H](C(C)C)C(=O)NS(=O)(=O)c2ccc3c(c2)N(C[C@@H]2CC[C@H]21)C[C@@]1(CCCc2cc(Cl)ccc21)CO3 [Example 128, (3R,6R,7R,8E,12S,22S)-6′-Chloro-7-methoxy-12-isopropyl-15,15-dioxo-spiro[20-oxa-15-thia-1,11,14-triazatetracyclo[14.7.2.03,6.019,24]pentacosa-8,16,18,24-tetraene-22,1′-tetralin]-13-one] | 1 to 100 | > 1000
2 | CO[C@@H]1/C=C/C[C@H](C)[C@@H](CO)C(=O)NS(=O)(=O)c2ccc3c(c2)N(C[C@@H]2CC[C@H]21)C[C@@]1(CCCc2cc(Cl)ccc21)CO3 [Example 94, (3R,6R,7R,8E,11S,12S,22S)-6′-Chloro-12-(hydroxymethyl)-7-methoxy-11-methyl-15,15-dioxo-spiro[20-oxa-15-thia-1,14-diazatetracyclo[14.7.2.03,6.019,24]pentacosa-8,16,18,24-tetraene-22,1′-tetralin]-13-one] | < 1 | > 1000
3 | CO[C@H]1/C=C/CC[C@@H](C)C(=O)NS(=O)(=O)c2ccc3c(c2)N(C[C@@H]2CC[C@H]21)C[C@@]1(CCCc2cc(Cl)ccc21)CO3 [Example 81, (3R,6R,7S,8E,12R,22S)-6′-Chloro-7-methoxy-12-methyl-15,15-dioxo-spiro[20-oxa-15-thia-1,14-diazatetracyclo[14.7.2.03,6.019,24]pentacosa-8,16(25),17,19(24)-tetraene-22,1′-tetralin]-13-one] | 1 to 100 | > 1000
4 | CN(C)CCN(C)C(=O)O[C@H]1/C=C/CN(C)C(C)(C)C(=O)NS(=O)(=O)c2ccc3c(c2)N(C[C@@H]2CC[C@H]21)C[C@@]1(CCCc2cc(Cl)ccc21)CO3 [Example 213, [(3R,6R,7S,8E,22S)-6′-Chloro-11,12,12-trimethyl-13,15,15-trioxo-spiro[20-oxa-15-thia-1,11,14-triazatetracyclo[14.7.2.03,6.019,24]pentacosa-8,16,18,24-tetraene-22,1′-tetralin]-7-yl] N-[2-(dimethylamino)ethyl]-N-methyl-carbamate] | < 1 | < 500
5 | CN1CCCN(C(=O)O[C@H]2/C=C/COC(C)(C)C(=O)NS(=O)(=O)c3ccc4c(c3)N(C[C@@H]3CC[C@H]32)C[C@@]2(CCCc3cc(Cl)ccc32)CO4)CC1 [Example 54, [(3R,6R,7S,8E,22S)-6′-Chloro-12,12-dimethyl-13,15,15-trioxo-spiro[11,20-dioxa-15-thia-1,14-diazatetracyclo[14.7.2.03,6.019,24]pentacosa-8,16,18,24-tetraene-22,1′-tetralin]-7-yl] 4-methyl-1,4-diazepane-1-carboxylate] | < 1 | < 500
6 | CO[C@@H]1/C=C/CNC(=O)NS(=O)(=O)c2ccc3c(c2)N(C[C@@H]2CC[C@H]21)C[C@@]1(CCCc2cc(Cl)ccc21)CO3 [Example 131, (3R,6R,7R,8E,21S)-6′-chloro-7-methoxy-14,14-dioxo-spiro[19-oxa-14-thia-1,11,13-triazatetracyclo[13.7.2.03,6.018,23]tetracosa-8,15,17,23-tetraene-21,1′-tetralin]-12-one] | 1 to 100 | > 1000
7 | CN(C(=O)O[C@H]1/C=C/COC(C)(C)C(=O)NS(=O)(=O)c2ccc3c(c2)N(C[C@@H]2CC[C@H]21)C[C@@]1(CCCc2cc(Cl)ccc21)CO3)[C@H]1CCOC1 [Example 202, [(3R,6R,7S,8E,22S)-6′-Chloro-12,12-dimethyl-13,15,15-trioxo-spiro[11,20-dioxa-15-thia-1,14-diazatetracyclo[14.7.2.03,6.019,24]pentacosa-8,16,18,24-tetraene-22,1′-tetralin]-7-yl] N-methyl-N-[(3S)-tetrahydrofuran-3-yl]carbamate] | < 1 | < 500
8 | CC1(C)OC/C=C/[C@H](OCC(=O)N2C[C@@H](F)[C@@H](F)C2)[C@@H]2CC[C@H]2CN2C[C@@]3(CCCc4cc(Cl)ccc43)COc3ccc(cc32)S(=O)(=O)NC1=O [Example 291, (3R,6R,7S,8E,22S)-6′-Chloro-7-[2-[(3R,4S)-3,4-difluoropyrrolidin-1-yl]-2-oxo-ethoxy]-12,12-dimethyl-15,15-dioxo-spiro[11,20-dioxa-15λ6-thia-1,14-diazatetracyclo[14.7.2.03,6.019,24]pentacosa-8,16,18,24-tetraene-22,1′-tetralin]-13-one] | < 1 | < 1000
9 | CC1(C)OC/C=C/[C@H](OCCN2CC[C@@H](F)C2)[C@@H]2CC[C@H]2CN2C[C@@]3(CCCc4cc(Cl)ccc43)COc3ccc(cc32)S(=O)(=O)NC1=O [Example 264, (3R,6R,7S,8E,22S)-6′-Chloro-7-[2-[(3R)-3-fluoropyrrolidin-1-yl]ethoxy]-12,12-dimethyl-15,15-dioxo-spiro[11,20-dioxa-15-thia-1,14-diazatetracyclo[14.7.2.03,6.019,24]pentacosa-8,16,18,24-tetraene-22,1′-tetralin]-13-one] | < 1 | < 500
10 | CC1(C)OC/C=C/[C@H](OCC(=O)N2C[C@@H](F)[C@H](F)C2)[C@@H]2CC[C@H]2CN2C[C@@]3(CCCc4cc(Cl)ccc43)COc3ccc(cc32)S(=O)(=O)NC1=O [Example 290, (3R,6R,7S,8E,22S)-6′-Chloro-7-[2-[(3R,4R)-3,4-difluoropyrrolidin-1-yl]-2-oxo-ethoxy]-12,12-dimethyl-15,15-dioxo-spiro[11,20-dioxa-15-thia-1,14-diazatetracyclo[14.7.2.03,6.019,24]pentacosa-8,16,18,24-tetraene-22,1′-tetralin]-13-one] | < 1 | < 500
11 | C[C@H]1CN(C(=O)O[C@H]2/C=C/COC(C)(C)C(=O)NS(=O)(=O)c3ccc4c(c3)N(C[C@@H]3CC[C@H]32)C[C@@]2(CCCc3cc(Cl)ccc32)CO4)CCN1 [Example 176, [(3R,6R,7S,8E,22S)-6′-Chloro-12,12-dimethyl-13,15,15-trioxo-spiro[11,20-dioxa-15-thia-1,14-diazatetracyclo[14.7.2.03,6.019,24]pentacosa-8,16,18,24-tetraene-22,1′-tetralin]-7-yl] (3S)-3-methylpiperazine-1-carboxylate] | < 1 | < 500
12 | CC1(C)OC/C=C/[C@@H](OCCN2CCCC2)[C@@H]2CC[C@H]2CN2C[C@@]3(CCCc4cc(Cl)ccc43)COc3ccc(cc32)S(=O)(=O)NC1=O [Example 274, (3R,6R,7R,8E,22S)-6′-Chloro-12,12-dimethyl-15,15-dioxo-7-(2-pyrrolidin-1-ylethoxy)spiro[11,20-dioxa-15-thia-1,14-diazatetracyclo[14.7.2.03,6.019,24]pentacosa-8,16,18,24-tetraene-22,1′-tetralin]-13-one] | < 1 | < 1000
13 | COC1CN(CCO[C@H]2/C=C/COC(C)(C)C(=O)NS(=O)(=O)c3ccc4c(c3)N(C[C@@H]3CC[C@H]32)C[C@@]2(CCCc3cc(Cl)ccc32)CO4)C1 [Example 261, (3R,6R,7S,8E,22S)-6′-Chloro-7-[2-(3-methoxyazetidin-1-yl)ethoxy]-12,12-dimethyl-15,15-dioxo-spiro[11,20-dioxa-15-thia-1,14-diazatetracyclo[14.7.2.03,6.019,24]pentacosa-8,16,18,24-tetraene-22,1′-tetralin]-13-one] | < 1 | < 500
